Reference: patent publication US20240226255A9, “COMPOSITIONS AND METHODS FOR ACTIVATING NK CELLS” (The Regents of the University of California, priority 2021, published 2024)

What was measured:
[1] = tested on: vector-alone transfected HEp2 cells; experiment: 51Cr release: NK cell lysis of Sulindac treated vector-alone transfected HEp2 cells; type: cell-based; settings: Sulindac 50-200 μm for 3-4 hours, vs non-treated HEp2 cells
Protocol: . (FIG. 17A) 4×10^6 vector-alone transfected HEp2 cells were labeled with ^51Cr for 1 hour at 37° C. […] Treatment of NK cells with IL-2 was carried out for 8-12 hours before their addition to the target cells. […] After an overnight incubation the cells were washed to remove the drugs, and the tumor cells were then co-cultured in the presence of untreated and IL-2 (500 u/ml) treated NK cells. After 48 hours of incubation the supernatants were removed from the NK-HEp2 cell co-cultures and assayed for released GM-CSF.

[2] = tested on: BM cells, splenocytes, spleen-purified NK cells, oral gingiva cells; experiment: IFN-γ ELISA of IL-2 cultured tissue cells from mice given ZOL or NaCl, then molar extraction; type: in vivo; settings: for ZOL-induced decrease in IFN-γ: oral tooth extraction site
Protocol: (§1) 7-week old female WT mice, and female Rag2^−/− mice (B6(Cg)-Rag2tm1.1Cgn/J null mutation in recombination-activating gene-2 resulting in the deficiency of B and T lymphocytes) were purchased from the Jackson Laboratory, Bar Harbor, ME. The UCLA Animal Research Committee reviewed and approved all experimental protocols involving animals (ARC 1997-136). Female WT mice and Rag2^−/− mice were injected with the single injection of 500 μg/kg ZOL or 0.9% NaCl vehicle solution via tail vein.
(§2) After 1-week of the ZOL and NaCl injection maxillary first molar was extracted as described previously. During the extraction procedure, mice were anesthetized via continuous inhalation of 2-4% isoflurane mixed with oxygen and placed on a custom-made surgical table in a supine position using the fixed positioner on the maxillary incisors. Immediately prior to tooth extraction, 5.0 mg/kg carprofen was subcutaneously injected, and mice received 5.0 mg/kg carprofen injection every 24 h for 48 h. Mice were sacrificed and various tissues were studied 4-weeks after the tooth extraction.
Single cell-suspension from each tissue of WT and Rag2^−/− female mice were activated with IL-2 (10,000 U/ml) for 5 days before the supernatants/culture media were harvested after to determine the levels of IFN-γ secretion. IFN-γ ELISAs were performed and standard curve was generated as described previously. A standard curve was generated by either two or three-fold dilution of recombinant IFN-γ provided by the manufacturer to analyze and obtain the IFN-γ concentration (Biolegend, San Diego, CA).
WT and RAG2 mice were administered with either 0.9% NaCl or ZOL (500 μg/kg) via tail vein followed by maxillary left first molar extraction as described in Materials and Methods section. Week 4 after the tooth extraction, animals were sacrificed, BM cells, splenocytes, splenocytes-purified NK cells and oral gingiva cells were cultured at (1×10^6 cells/ml) each treated with IL-2 (10000 U/ml) for 5 days, after which the supernatants were harvested and the levels of IFN-γ were determined using specific ELISA. Modulation of IFN-7 by ZOL in both WT and RAG2 mice models were determined, and fold change in comparison to NaCl controls was calculated for each tissue.

[3] = Osteonecrosis of the jaw (ONJ) after ZOL injection and molar extraction; type: in vivo; settings: Rag2−/− mice injected with ZOL
Protocol: as §1, §2

[4] = tested on: st63 cells; settings: Rag2−/− mice
Protocol: RAG2 mice were administered with either 0.9% NaCl or ZOL (500 μg/kg) via tail vein followed by maxillary left first molar extraction as described in Materials and Methods section. […] Week 4 after the tooth extraction, animals were sacrificed, BM cells (n=9), splenocytes (n=9), and NK cells purified from splenocytes (n=5) were cultured at (1×10^6 cells/ml) each treated with IL-2 (10000 U/ml) for 5 days, after which the cells were used as effector cells against tumor targets. Cytotoxicity assays were performed using standard 4-hour ^51Cr release assay against st63 cells, and the LU 30/10^6 cells were determined using inverse number of cells required to lyse 30% of st63 cells×100 (FIG. 16B).
Single cell-suspension from each tissue and spleen-purified NK cells from WT and Rag2^−/− mice female mice were activated with IL-2 (10,000 U/ml) for 5 days and were used as effector cells on day 5. […] After that, the supernatants were harvested from each sample and released radioactivity was counted using the gamma counter. The percentage (%) specific cytotoxicity was calculated as follows:
% Cytotoxicity=Experimental cpm−spontaneous cpm/Total cpm−spontaneous cpm • Lytic Units (LU) 30/10^6 was calculated by using the inverse of the number of effector cells needed to lyse 30% of tumor target ST63 cells×100.

[5] = tested on: NK cells; experiment: IFN-γ ELISA of human NK cell cultures; type: cell-based; settings: LPS 20 ng/mL, 24-48 h
Protocol: (§3) Afterward, the cytotoxicity against OSCSCs was assessed using a standard 4 h ^51Chromium release assay. […] NK cells were prepared as described in FIG. 5A. […] One of several representative experiments is shown in this figure.
(§4) Human NK cells were purified from healthy donors and left untreated or treated with IL-2 (1000 U/mL) or the combination of IL-2 (1000 U/mL) and anti-CD16mAb (3 μg/mL) in the presence of sAJ2 (NK cell:sAJ2, 1:3), autologous monocytes (NK cell:monocytes, 1:1) or the combination of sAJ2 (NK cell:sAJ2, 1:3) and autologous monocytes (NK cell:monocytes, 1:1) for 24-48 h. Afterward, the cytotoxicity against OSCSCs cells was assessed using a standard 4 h ^51Chromium release assay. […] NK cells were prepared as described in FIG. 6A and after the treatment period, the supernatants were removed from the co-cultures and the levels of IFN-γ cytokine were measured with specific ELISA. *P<0.05 was obtained for the differences in cytotoxicity and IFN-γ secretion between human NK cells cultured in media and those treated with sAJ2, monocytes or the combination of sAJ2 and monocytes. One of several representative experiments is shown in this figure (FIG. 8B). […] After an overnight incubation, the supernatants were collected and the levels of IFN-γ, IL-15, IFN-α, and IL-12 were determined by ELISAs in a multiplexed format using Luminex technology (FIG. 8C). […]

[6] = tested on: NK cells; experiment: IFN-γ ELISA of mouse NK cell-monocyte co-cultures ± LPS; type: cell-based; settings: LPS 20 ng/mL
Protocol: (§5) Afterward, NK cells were used as effector cells in a standard 4 h ^51Chromium release assay against YAC-1 cells. […] NK cells were treated as described in (FIG. 4A) and afterward the supernatant was removed from the co-cultures and the levels of IFN-γ secretion were determined using specific ELISAs. *P<0.05 was obtained for differences in secretion of IFN-γ between untreated and LPS-treated NK cells cultured with monocytes from control littermates or those from Cox-2flox/flox;LysMCre/+ mice (FIG. 4B). NK cells were prepared as described in (FIG. 4A) and used as effector cells against DCs derived from monocytes from either wild type or Cox-2flox/flox; LysMCre/+ mice in a standard 4 h ^51Chromium release assay. […] One of several representative experiments is shown in this figure.
(§6) Similar results to those seen with YAC-1 targets were also seen when control and Cox-2flox/flox;LysMCre/+ DCs were used as targets (FIG. 4C).

[7] = tested on: DCs from wild type or Cox-2flox/flox;LysMCre/+ mice; experiment: 4 h 51Chromium release assay of mouse NK cells ± LPS against monocyte-derived DCs; type: cell-based; settings: IL-2-treated WT NK cells + WT or KO monocytes
Protocol: as §5, §6

[8] = tested on: OSCSCs; experiment: 4 h 51Chromium release assay of human NK cells against OSCSCs; type: cell-based; settings: LPS 20 ng/mL, 24-48 h
Protocol: as §3, §4

[9] = tested on: YAC-1 cells; experiment: 4 h 51Chromium release assay of mouse NK cells cultured with monocytes ± LPS against YAC-1; type: cell-based; settings: IL-2-treated WT NK cells + monocytes from control WT littermates; LPS 20 ng/mL
Protocol: as §5, §6

CC1=C(CC(=O)O)c2cc(F)ccc2/C1=C\c1ccc([S+](C)[O-])cc1 (stereo not shown) [Sulindac]
NK cell lysis of treated HEp2 cells [1]: increased lysis

O=P(O)(O)C(O)(Cn1ccnc1)P(=O)(O)O [ZOL, zolendronate]
ZOL-induced increase in IFN-γ ([2]; BM, Rag2−/− mice): 50-75%
IFN-γ secretion after ZOL injections ([2]; BM, Rag2−/− mice, vs NaCl): significantly increased
ZOL-induced increase in IFN-γ ([2]; BM, WT mice): 300-500%
Fold change in IFN-γ secretion (ZOL group/NaCl group) ([2]; Bone marrow, Rag2−/− (Rag KO) mice, ZOL 500 μg/kg): 1.5-1.75 fold
Fold change in IFN-γ secretion (ZOL group/NaCl group) ([2]; Bone marrow, WT mice, ZOL 500 μg/kg tail vein, week 4 after tooth extraction, cells + IL-2 5 days): 4-6 fold
Fold change in IFN-γ secretion (ZOL group/NaCl group) ([2]; Gingiva, Rag2−/− (Rag KO) mice, ZOL 500 μg/kg): 0.22-0.35 fold
Fold change in IFN-γ secretion (ZOL group/NaCl group) ([2]; Gingiva, WT mice, ZOL 500 μg/kg): 0.3-0.5 fold
ZOL-induced drop in IFN-γ ([2]; NK cells purified from splenocytes, Rag2−/− mice): 58-65%
ZOL-induced increase in IFN-γ ([2]; NK cells purified from splenocytes, WT mice): 20-90%
Fold change in IFN-γ secretion (ZOL group/NaCl group) ([2]; Spleen, Rag2−/− (Rag KO) mice, ZOL 500 μg/kg): 0.5-0.66 fold
Fold change in IFN-γ secretion (ZOL group/NaCl group) ([2]; Spleen, WT mice, ZOL 500 μg/kg): 2-3.4 fold
Fold change in IFN-γ secretion (ZOL group/NaCl group) ([2]; Spleen-purified NK cells, Rag2−/− (Rag KO) mice, ZOL 500 μg/kg): 0.35-0.42 fold
Fold change in IFN-γ secretion (ZOL group/NaCl group) ([2]; Spleen-purified NK cells, WT mice, ZOL 500 μg/kg): 1.2-1.9 fold
ZOL-induced decrease in IFN-γ ([2]; Rag2−/− mice): 65-78%
ZOL-induced decrease in IFN-γ ([2]; WT mice): 50-70%
secretion of IFN-γ after ZOL intake ([2]; spleen, spleen-purified NK cells and oral gingiva cells, Rag2−/− mice): blocked
ZOL-induced drop in IFN-γ ([2]; splenocytes, Rag2−/− mice): 34-50%
ZOL-induced increase in IFN-γ ([2]; splenocytes, WT mice): 100-240%
ONJ [3]: no ONJ was seen
NK cell-mediated cytotoxicity after ZOL injections ([4]; BM, vs NaCl): significantly increased
NK cell-mediated cytotoxicity with ZOL ([4]; spleen and spleen-purified NK cells): blocked

Lipopolysaccharide [LPS]
IFN-γ secretion [5]: increasing
IFN-γ secretion ([6]; IL-2-treated WT NK cells + monocytes from Cox-2flox/flox;LysMCre/+ mice): increasing IFN-γ secretion significantly
amount of IFN-γ secreted by the NK cells ([6]; IL-2-treated WT NK cells + monocytes from control WT littermates): increased
NK cell cytotoxicity against wild type and Cox-2flox/flox;LysMCre/+ DCs [7]: decreased
NK cell-mediated cytotoxicity against OSCSCs [8]: loss
NK cells' ability to lyse YAC-1 cells [9]: complete shutdown
